For nine compounds, IC50 results are on record in BindingDB's records for doi:10.1080/14756360802218334 (Cardiff University, 2009).

Broadly, the IC50 is the concentration that gives 50% inhibition. Higher therefore signals lower potency.

The target of the test is T1, Cytochrome P450 26A1 (Homo sapiens, UniProt O43174).
T1 sequence (O43174 whole entry): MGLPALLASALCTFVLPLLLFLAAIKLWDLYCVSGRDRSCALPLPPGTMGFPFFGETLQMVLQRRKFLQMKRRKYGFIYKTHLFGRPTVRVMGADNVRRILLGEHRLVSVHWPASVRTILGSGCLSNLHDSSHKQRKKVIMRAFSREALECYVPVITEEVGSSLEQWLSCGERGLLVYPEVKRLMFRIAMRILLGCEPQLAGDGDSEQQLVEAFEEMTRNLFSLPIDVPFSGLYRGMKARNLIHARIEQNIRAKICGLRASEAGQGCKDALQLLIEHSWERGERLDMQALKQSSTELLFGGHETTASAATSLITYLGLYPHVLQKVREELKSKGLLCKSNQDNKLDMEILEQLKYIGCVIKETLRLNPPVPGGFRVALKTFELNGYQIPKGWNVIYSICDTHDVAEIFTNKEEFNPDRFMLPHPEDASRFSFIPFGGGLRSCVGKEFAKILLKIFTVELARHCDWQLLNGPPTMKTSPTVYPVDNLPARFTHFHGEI
Description: Cell Assay.
As to `c1ccc(C(c2ccc(Nc3nc4ccccc4o3)cc2)n2cncn2)cc1` (centres undefined) [1H-1,2,4-triazole, 11], the concentration for half-maximal inhibition (IC50) was 18 µM.
In the case of `c1ccc(C(c2ccc(Nc3nc4ccccc4o3)cc2)n2cnnc2)cc1` (centres undefined) [1H-1,2,4-triazole, 12] it was more than 20 µM.
For `c1ccc(C(c2ccc(Nc3nc4ccccc4o3)cc2)n2cnnn2)cc1` (centres undefined) [1H-tetrazole, 13] the value was more than 20 µM; for `Fc1ccc(C(c2ccc(Nc3nc4ccccc4o3)cc2)n2ccnc2)cc1` (centres undefined) [Oxazolamine derivative, 5a], 35 µM; for `COC(=O)c1ccc(C(c2ccc(Nc3nc4ccccc4o3)cc2)n2ccnc2)cc1` (centres undefined) [Oxazolamine derivative, 5c], 20 µM.
Turning to `O=C(O)c1ccc(C(c2ccc(Nc3nc4ccccc4o3)cc2)n2ccnc2)cc1` (centres undefined) [Oxazolamine derivative, 5d], the half-maximal inhibitory concentration (IC50) was 50 µM.
Consider `COc1ccc(C(c2ccc(Nc3nc4ccccc4o3)cc2)n2ccnc2)cc1` (centres undefined) [Oxazolamine derivative, 5e], for which the IC50 is more than 20 µM.
In the case of `Oc1ccc(C(c2ccc(Nc3nc4ccccc4o3)cc2)n2ccnc2)cc1` (centres undefined) [Oxazolamine derivative, 5f] it was 12 µM.
In the case of `CCC(CC)C(c1ccc(Nc2nc3ccccc3s2)cc1)n1cncn1` (centres undefined) [R115866] it was 0.005 µM.
